Tests used:
Conditions in all cases: 72 h
BV-173 [1] = system: BV-173
Outline: (§1)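 Fifteen myeloid leukaemia lines in RPMI 1640 were treated for 72 h at 37 °C and 5% CO2 with five tenfold doses from 1 to 10,000 nM, in duplicate. ATP luminescence was normalised to vehicle and to a positive control at 10 µM, then fitted with a four-parameter log-logistic model. The IC50 came from these fits.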

HEL = system: HEL
Outline: as §1

HL-60 [2] = system: HL-60
Outline: as §1

K-562 [3] = system: K-562
Outline: as §1

KCL-22 [4] = system: KCL-22
Outline: as §1

KG-1 [5] = system: KG-1
Outline: as §1

KU-812 [6] = system: KU-812
Outline: as §1

LAMA-84 [7] = system: LAMA-84
Outline: as §1

ML-2 [8] = system: ML-2
Outline: as §1

MOLM-13 [9] = system: MOLM-13
Outline: as §1

MV4-11 [10] = system: MV4-11
Outline: as §1

Mono-Mac-6 = system: Mono-Mac-6
Outline: as §1

NOMO-1 [11] = system: NOMO-1
Outline: as §1

SHI-1 = system: SHI-1
Outline: as §1

THP-1 [12] = system: THP-1
Outline: as §1

HL-60 [13] = experiment: cell viability (% survival relative to DMSO control); higher = less cytotoxic
Outline: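 Area under the curve, where listed, was derived from four-parameter log-logistic fits with drc and PharmacoGx. These fits used CellTiter-Glo viability from HL-60 cells in RPMI 1640 with 10% FBS, normalised to DMSO wells and wells holding 10 μM proteasome inhibitor. The full library was rescreened on 384-well plates in duplicate at five tenfold concentrations, 1–10,000 nM, with DMSO or 100 nM of one of three metabolic inhibitors, for 72 h at 37 °C, 5% CO2.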

BV-173 [14] = experiment: cell viability (% survival relative to DMSO control, bortezomib = 0%); higher = less cytotoxic
Outline: (§2)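 After 72 h at 37 °C with 5% CO2, cell viability in 384-well plates was measured by CellTiter-Glo luminescence. The plates held compounds pre-printed at 1, 10, 100, 1000 or 10000 nM in duplicate, and cells from 10 AML and 5 CML lines seeded at densities titrated to linear growth. Percent survival is the duplicate mean, normalised to vehicle as 100% and a 10 µM positive control as 0%.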

HL-60 [15] = experiment: as above
Outline: as §2

K-562 [16] = experiment: as above
Outline: as §2

KCL-22 [17] = experiment: as above
Outline: as §2

KG-1 [18] = experiment: as above
Outline: as §2

KU-812 [19] = experiment: as above
Outline: as §2

LAMA-84 [20] = experiment: as above
Outline: as §2

ML-2 [21] = experiment: as above
Outline: as §2

MOLM-13 [22] = experiment: as above
Outline: as §2

MV4-11 [23] = experiment: as above
Outline: as §2

NOMO-1 [24] = experiment: as above
Outline: as §2

THP-1 [25] = experiment: as above
Outline: as §2

CCC(=O)N1CCN(c2ccc(-n3c(=O)ccc4cnc5ccc(-c6cnc7ccccc7c6)cc5c43)cc2C(F)(F)F)CC1 [Torin1]
Conditions | IC50 (cell viability) [µM]
BV-173 [1] | 0.377
HEL | 0.594
HL-60 [2] | 1.75
K-562 [3] | 0.327
KCL-22 [4] | 0.251
KG-1 [5] | 0.295
KU-812 [6] | 0.191
LAMA-84 [7] | 0.222
ML-2 [8] | 0.616
MOLM-13 [9] | 0.208
MV4-11 [10] | 0.486
Mono-Mac-6 | 0.333
NOMO-1 [11] | 0.672
SHI-1 | > 10
THP-1 [12] | 1.11

cell viability [%], HL-60 [13]
Conditions | 0.001 µM | 0.01 µM | 0.1 µM | 1 µM | 10 µM
co-treatment: AZD3965 100 nM | 105 | 100 | 91.3 | 99 | 51.4
co-treatment: DMSO vehicle | 97.9 | 102.1 | 93.4 | 101 | 65.4
co-treatment: GSK2194069 100 nM | 106 | 106 | 92.1 | 104.4 | 72.7
co-treatment: pictilisib 100 nM | 100 | 104 | 80 | 85.8 | 65.5

cell viability [%]
Conditions | 1 nM | 10 nM | 100 nM | 1000 nM | 10000 nM
BV-173 [14] | 111 | 80.7 | 89.1 | 20.9 | 8.44
HL-60 [15] | 73.2 | 95.1 | 85.7 | 65.3 | 24.6
K-562 [16] | 108 | 87 | 85.9 | 24.7 | 11.7
KCL-22 [17] | 102 | 110 | 87.8 | 10.9 | 8.17
KG-1 [18] | 94.9 | 89.7 | 81.5 | 29.1 | 26
KU-812 [19] | 97.7 | 87.1 | 73.1 | 24.4 | 20.1
LAMA-84 [20] | 105 | 93.1 | 80.2 | 28.8 | 21.8
ML-2 [21] | 96.1 | 99.7 | 91.5 | 46.5 | 33.5
MOLM-13 [22] | 93 | 77.8 | 70 | 16.2 | 12.9
MV4-11 [23] | 88.9 | 95.7 | 90.8 | 26.1 | 11.1
NOMO-1 [24] | 109 | 96.2 | 93.4 | 47.5 | 37.1
THP-1 [25] | 104 | 98.5 | 96.9 | 58.9 | 33.9

NC(=O)c1cccc(-c2cccc(OC(=O)NC3CCCCC3)c2)c1 [URB-597]
Conditions | IC50 (cell viability) [µM]
BV-173 [1] | > 10
HEL | > 10
HL-60 [2] | > 10
K-562 [3] | > 10
KCL-22 [4] | > 10
KG-1 [5] | > 10
KU-812 [6] | > 10
LAMA-84 [7] | > 10
ML-2 [8] | > 10
MOLM-13 [9] | > 10
MV4-11 [10] | > 10
Mono-Mac-6 | > 10
NOMO-1 [11] | > 10
SHI-1 | > 10
THP-1 [12] | > 10

cell viability [%], HL-60 [13]
Conditions | 0.001 µM | 0.01 µM | 0.1 µM | 1 µM | 10 µM
co-treatment: AZD3965 100 nM | 101 | 105 | 101 | 103 | 103
co-treatment: DMSO vehicle | 100 | 104 | 99.6 | 100 | 102
co-treatment: GSK2194069 100 nM | 103 | 113.65 | 98.1 | 101 | 104
co-treatment: pictilisib 100 nM | 108 | 106.8 | 100 | 97.2 | 111

cell viability [%]
Conditions | 1 nM | 10 nM | 100 nM | 1000 nM | 10000 nM
BV-173 [14] | 91 | 104 | 105 | 104 | 115
HL-60 [15] | 98.7 | 89.2 | 114 | 94.3 | 103
K-562 [16] | 102 | 98 | 100 | 90.6 | 100
KCL-22 [17] | 105 | 106 | 104 | 98.2 | 109
KG-1 [18] | 102 | 103 | 102 | 92.8 | 101
KU-812 [19] | 92.1 | 99.1 | 103 | 103 | 87.2
LAMA-84 [20] | 99.8 | 96.9 | 99.6 | 98.3 | 96.1
ML-2 [21] | 92.2 | 94.2 | 105 | 105 | 114
MOLM-13 [22] | 99.9 | 93.7 | 105 | 93.8 | 117
MV4-11 [23] | 96.4 | 96.5 | 109 | 99.6 | 89.5
NOMO-1 [24] | 101 | 103 | 105 | 96.1 | 110
THP-1 [25] | 98.5 | 93.8 | 105 | 99.1 | 102

O=C1O[C@H]([C@@H](O)CO)C(O)=C1O [Vitamin C (ascorbate)]
Conditions | IC50 (cell viability) [µM]
BV-173 [1] | > 10
HEL | > 10
HL-60 [2] | > 10
K-562 [3] | > 10
KCL-22 [4] | > 10
KG-1 [5] | > 10
KU-812 [6] | > 10
LAMA-84 [7] | > 10
ML-2 [8] | > 10
MOLM-13 [9] | > 10
MV4-11 [10] | > 10
Mono-Mac-6 | > 10
NOMO-1 [11] | > 10
SHI-1 | > 10
THP-1 [12] | > 10

cell viability [%], HL-60 [13]
Conditions | 0.001 µM | 0.01 µM | 0.1 µM | 1 µM | 10 µM
co-treatment: AZD3965 100 nM | 89.82 | 94.8 | 101 | 103 | 67.9
co-treatment: DMSO vehicle | 102 | 95.8 | 98.77 | 103 | 88.3
co-treatment: GSK2194069 100 nM | 88.6 | 100 | 96.8 | 101 | 95.5
co-treatment: pictilisib 100 nM | 80.3 | 81.6 | 96.3 | 95.46 | 75.2

cell viability [%]
Conditions | 1 nM | 10 nM | 100 nM | 1000 nM | 10000 nM
BV-173 [14] | 94.2 | 113 | 103 | 99.2 | 118
HL-60 [15] | 104 | 91.2 | 101 | 108 | 84.7
K-562 [16] | 99.2 | 96.3 | 92.8 | 104 | 89.4
KCL-22 [17] | 90.2 | 96.2 | 97.7 | 88.1 | 92.6
KG-1 [18] | 112 | 103 | 118 | 97.5 | 106
KU-812 [19] | 96.8 | 104 | 99.5 | 95 | 108
LAMA-84 [20] | 106 | 106 | 113 | 101 | 102
ML-2 [21] | 103 | 107 | 100 | 102 | 121
MOLM-13 [22] | 101 | 103 | 91.6 | 94.2 | 107
MV4-11 [23] | 102 | 102 | 111 | 111 | 92.1
NOMO-1 [24] | 95.5 | 100 | 110 | 97.8 | 102
THP-1 [25] | 96.4 | 100 | 103 | 103 | 99.9
